{"source": "paper PMC8348686", "about": "“The Pharmacological Profile of Second Generation Pyrovalerone Cathinones and Related Cathinone Derivative” (International Journal of Molecular Sciences, 2021)", "origin": "cited, not measured here", "key": {"h5-HT2B receptor": {"molecular_target": "T1, h5-HT2B receptor (Homo sapiens, UniProt P41595)", "T1 construct": "expressed in transfected cells; host or cells: HEK293", "T1 sequence (P41595 whole entry)": "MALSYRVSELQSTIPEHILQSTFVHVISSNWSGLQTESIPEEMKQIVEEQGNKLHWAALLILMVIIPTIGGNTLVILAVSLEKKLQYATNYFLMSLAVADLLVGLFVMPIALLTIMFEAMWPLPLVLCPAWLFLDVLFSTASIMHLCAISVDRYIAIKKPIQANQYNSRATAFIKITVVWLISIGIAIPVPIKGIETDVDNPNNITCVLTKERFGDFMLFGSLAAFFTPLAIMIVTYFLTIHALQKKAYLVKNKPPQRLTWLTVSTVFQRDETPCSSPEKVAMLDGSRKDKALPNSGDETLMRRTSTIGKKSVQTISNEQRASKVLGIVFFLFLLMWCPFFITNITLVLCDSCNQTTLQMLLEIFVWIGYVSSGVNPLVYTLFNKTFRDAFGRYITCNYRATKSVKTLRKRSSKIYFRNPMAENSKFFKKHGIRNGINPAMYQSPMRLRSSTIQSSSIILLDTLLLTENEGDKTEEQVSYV", "parameters": "method as in Rickli et al. (2015)", "conditions": "read-out: h5-HT2B Activation Potency EC50 ± SD; ref Rickli et al. (2015); cited from earlier work"}, "h5-HT2C receptor": {"molecular_target": "T2, h5-HT2C receptor (Homo sapiens, UniProt P28335)", "T2 construct": "expressed in transfected cells; host or cells: HEK293 cell preparations", "T2 sequence (P28335 33-458)": "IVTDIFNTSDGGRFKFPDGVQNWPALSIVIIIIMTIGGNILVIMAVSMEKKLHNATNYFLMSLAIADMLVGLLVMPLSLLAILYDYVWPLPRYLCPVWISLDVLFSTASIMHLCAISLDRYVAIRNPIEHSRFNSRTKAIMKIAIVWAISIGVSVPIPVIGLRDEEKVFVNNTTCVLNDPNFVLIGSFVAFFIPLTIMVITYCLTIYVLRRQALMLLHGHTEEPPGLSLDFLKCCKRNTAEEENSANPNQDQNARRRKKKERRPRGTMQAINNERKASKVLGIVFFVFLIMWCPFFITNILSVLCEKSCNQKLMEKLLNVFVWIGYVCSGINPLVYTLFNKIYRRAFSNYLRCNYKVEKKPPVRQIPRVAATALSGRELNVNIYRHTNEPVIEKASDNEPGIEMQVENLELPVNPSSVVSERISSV", "conditions": "read-out: h5-HT2C Receptor Binding Ki ± SD; [3H]-Mesulgerine; ref Simmler et al. (2013); cited from earlier work"}, "dopaminergic D2 receptor": {"molecular_target": "dopaminergic D2 receptor (Homo sapiens, UniProt P14416)", "sequence (P14416 whole entry)": "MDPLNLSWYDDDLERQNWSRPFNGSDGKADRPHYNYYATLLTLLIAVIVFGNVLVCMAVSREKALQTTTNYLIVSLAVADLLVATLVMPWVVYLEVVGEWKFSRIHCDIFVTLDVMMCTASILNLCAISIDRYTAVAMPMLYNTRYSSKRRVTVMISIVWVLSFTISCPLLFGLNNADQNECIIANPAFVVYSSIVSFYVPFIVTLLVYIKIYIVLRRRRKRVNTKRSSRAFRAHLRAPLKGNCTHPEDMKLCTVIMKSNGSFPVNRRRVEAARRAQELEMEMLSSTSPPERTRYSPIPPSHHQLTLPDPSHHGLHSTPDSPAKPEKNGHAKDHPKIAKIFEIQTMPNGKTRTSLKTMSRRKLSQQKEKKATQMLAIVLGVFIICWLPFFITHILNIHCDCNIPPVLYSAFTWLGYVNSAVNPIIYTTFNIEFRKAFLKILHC", "conditions": "read-out: D2 Receptor Binding Ki ± SD; [3H]-Spiperone; ref Simmler et al. (2013); cited from earlier work"}, "adrenergic α1A receptor": {"molecular_target": "T3, adrenergic α1A receptor (Homo sapiens, UniProt P35348)", "T3 sequence (P35348 1-466)": "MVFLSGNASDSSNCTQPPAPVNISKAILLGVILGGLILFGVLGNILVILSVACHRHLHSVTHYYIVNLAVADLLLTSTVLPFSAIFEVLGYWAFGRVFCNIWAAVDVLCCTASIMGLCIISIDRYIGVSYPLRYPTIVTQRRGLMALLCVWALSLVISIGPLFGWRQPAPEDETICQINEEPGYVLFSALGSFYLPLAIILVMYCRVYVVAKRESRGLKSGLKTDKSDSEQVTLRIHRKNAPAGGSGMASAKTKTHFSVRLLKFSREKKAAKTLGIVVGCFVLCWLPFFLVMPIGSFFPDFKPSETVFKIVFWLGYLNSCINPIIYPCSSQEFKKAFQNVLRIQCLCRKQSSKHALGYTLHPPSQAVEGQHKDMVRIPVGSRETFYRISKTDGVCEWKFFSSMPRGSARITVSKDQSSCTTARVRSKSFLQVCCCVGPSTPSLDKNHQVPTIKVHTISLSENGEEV", "conditions": "read-out: α1A Receptor Binding Ki ± SD; [3H]-Prazosin; ref Simmler et al. (2013); cited from earlier work"}, "adrenergic α2A receptor": {"molecular_target": "T4, adrenergic α2A receptor (Homo sapiens, UniProt P08913)", "T4 sequence (P08913 1-465)": "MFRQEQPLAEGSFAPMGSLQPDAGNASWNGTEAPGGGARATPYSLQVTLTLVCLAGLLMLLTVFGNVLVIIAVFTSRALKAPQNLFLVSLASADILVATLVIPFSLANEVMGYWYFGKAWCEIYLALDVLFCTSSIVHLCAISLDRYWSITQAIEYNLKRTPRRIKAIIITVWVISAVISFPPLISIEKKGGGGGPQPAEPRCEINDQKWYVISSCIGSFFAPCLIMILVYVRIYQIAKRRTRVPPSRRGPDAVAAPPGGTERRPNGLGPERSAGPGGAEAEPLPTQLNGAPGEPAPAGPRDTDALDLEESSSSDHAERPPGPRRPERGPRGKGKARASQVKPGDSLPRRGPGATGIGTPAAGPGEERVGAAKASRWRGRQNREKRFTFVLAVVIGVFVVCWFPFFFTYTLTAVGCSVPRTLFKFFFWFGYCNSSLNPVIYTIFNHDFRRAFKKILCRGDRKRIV", "conditions": "read-out: α2A Receptor Binding Ki ± SD; [3H]-Rauwolscine; ref Simmler et al. (2013); cited from earlier work"}, "Human TAAR1": {"system": "Human TAAR1", "parameters": "method as in Simmler et al. (2016)", "conditions": "ref Simmler et al. (2016); read-out: Human TAAR1 Activation Potency EC50 ± SD; cited from earlier work"}, "Rat TAAR1": {"molecular_target": "Rat TAAR1", "conditions": "[3H]-RO5166017; ref Simmler et al. (2013); read-out: Rat TAAR1 Receptor Binding Ki ± SD; cited from earlier work"}, "Mouse TAAR1": {"molecular_target": "Mouse TAAR1", "conditions": "[3H]-RO5166017; ref Simmler et al. (2013); read-out: Mouse TAAR1 Receptor Binding Ki ± SD; cited from earlier work"}, "h5-HT2A receptor": {"molecular_target": "h5-HT2A receptor (Homo sapiens, UniProt P28223)", "sequence (P28223 whole entry)": "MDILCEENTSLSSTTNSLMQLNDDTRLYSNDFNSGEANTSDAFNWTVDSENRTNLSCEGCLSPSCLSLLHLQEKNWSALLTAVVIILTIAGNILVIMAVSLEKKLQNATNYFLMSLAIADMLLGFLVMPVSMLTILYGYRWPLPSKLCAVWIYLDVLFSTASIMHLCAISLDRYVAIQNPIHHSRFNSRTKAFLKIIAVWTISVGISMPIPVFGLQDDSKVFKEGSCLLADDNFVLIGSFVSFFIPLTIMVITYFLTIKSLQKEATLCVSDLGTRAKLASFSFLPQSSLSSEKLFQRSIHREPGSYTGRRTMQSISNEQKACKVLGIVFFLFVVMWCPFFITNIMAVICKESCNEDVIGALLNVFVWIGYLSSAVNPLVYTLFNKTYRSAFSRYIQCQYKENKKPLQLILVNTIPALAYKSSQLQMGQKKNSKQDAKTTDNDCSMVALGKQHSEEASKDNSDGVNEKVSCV", "parameters": "expressed in transfected cells; host or cells: HEK293 cell preparations", "conditions": "read-out: h5-HT2A Receptor Binding Ki ± SD; [3H]-Ketanserin; ref Simmler et al. (2013); cited from earlier work"}}}
{"smiles": "CC(N)Cc1ccccc1", "note": "(stereo not drawn) [Amphetamine, amphetamine, reference compound]", "values": [{"measurement": "EC50", "setting": "h5-HT2B receptor", "result": "9400 ± 1600", "unit": "nM"}, {"measurement": "Ki", "setting": "h5-HT2C receptor", "result": "> 13000", "unit": "nM"}, {"measurement": "Ki", "setting": "dopaminergic D2 receptor", "result": "> 30000", "unit": "nM"}, {"measurement": "Ki", "setting": "adrenergic α1A receptor", "result": "> 6000", "unit": "nM"}, {"measurement": "Ki", "setting": "adrenergic α2A receptor", "result": "2800 ± 800", "unit": "nM"}, {"measurement": "EC50", "setting": "Human TAAR1", "result": "2800 ± 800", "unit": "nM"}, {"measurement": "Ki", "setting": "Rat TAAR1", "result": "230 ± 180", "unit": "nM"}, {"measurement": "Ki", "setting": "Mouse TAAR1", "result": "90 ± 60", "unit": "nM"}, {"measurement": "Ki", "setting": "h5-HT2A receptor", "result": "> 13000", "unit": "nM"}]}
